Assay results published in patent US7015309B1 (The Wistar Institute of Anatomy and Biology, priority 1999, dated 2006).
“Also recorded” adds a separate entry of the source. Where two headings read alike, the source gives them in different places. Non-standard residues stand in square brackets, D forms with d. Residues, ends and D or L forms follow the SMILES beside them. No end group written: not given here. ξ: configuration not given here. Ac6c = NC1(C(=O)O)CCCCC1; ξDap = NCC(N)C(=O)O

Experiments:
[1] = 25% aqueous pooled mouse serum (Sigma); settings: 37° C., up to 8 hours
[2] = 25% aqueous pooled human serum (Sigma), human 1, approximately 1 year old; settings: 37° C., up to 8 hours
[3] = 25% aqueous pooled human serum (Sigma), human 2, approximately 1 month old; settings: 37° C., up to 8 hours
[4] = system: sheep erythrocytes; assay: Hemolytic activity, release of hemoglobin; settings: for Absorbence at 405 nm: 40 μM peptide, one hour, 39° C.
Description: To determine whether native and modified pyrrhocoricin peptides were toxic to mammalian cells, several peptides from Example 1 above, a positive control, and a negative control were examined for hemolytic activity. Hemolytic activity was assayed with sheep erythrocytes suspended in Alsever's solution (BioWhittaker, Walkersville, Md.), and diluted with Dulbecco's phosphate-buffered saline, pH 7.2. Thirty μL of a 1% suspension of the red blood cells was incubated with agitation at 39° C. with 30 μL of 40 to 256 μM of each of the following peptides dissolved in phosphate buffered saline for one hour and centrifuged at 1000 g for five minutes. Fifty μL of the supernatant was collected and the release of hemoglobin was detected by measuring the ultraviolet absorbences of triplicate samples of the 40 μM or 256 μM test peptides and the control peptides at 405 nm.

[5] = system: Agrobacterium tumefaciens
Description: (§1) Growth inhibition assays were performed using the peptides of Example 1 and the Gram positive microorganisms Micrococcus luteus and Bacillus megaterium, and the Gram negative microorganisms, Escherichia coli D22, Agrobacterium tumefaciens, and Salmonella typhimurium. Anti-bacterial assays were performed in sterilized 96-well plates (Nunc F96 microtiter plates) with a final volume of 100 μl as described in Bulet (1996), cited above. Briefly, 90 μl of a suspension of a midlogarithmic phase bacterial culture at an initial 600 nm UV absorbence of 0.001 in Luria-Bertani rich nutrient medium was added to 10 μl of serially diluted peptides in sterilized water. The final peptide concentrations ranged between 0.15 and 80 μM. The plates were incubated at 30° C. for 24 hours with gentle shaking, and the growth inhibition was measured by recording the increase of the UV absorbence at 600 nm on an SLT Labinstruments 400 ATC microplate reader. The experiments were conducted over a 7-month period.

[6] = system: Escherichia coli D22; settings: read-out: IC50 in μM against Escherichia coli D22; 30° C., 24 hours; for Peptide 22 original assay (a)
Description: as §1

[7] = system: Micrococcus luteus
Description: as §1

[8] = system: Salmonella typhimurium
Description: as §1

[9] = system: Bacillus megaterium
Description: as §1

[10] = human sera, preliminary metabolism studies
Description: Owing to the fact that the use of diluted serum increases peptide recovery as well as retards the reaction kinetics to a manageable rate, the experiments were conducted using 25% aqueous sera.
For serum stability studies, 10 μl of an aqueous peptide stock solution containing about 0.8 mg/ml peptide was added to 200 μl 25% aqueous pooled mouse or human serum (Sigma, St. Louis, Mo.), according to the process described in M. F. Powell et al, Pharmacol Res, 10: 1268–1273 (1993). The peptide-serum mixture was thermostated at 37° C. After 0 minutes, 45 minutes, 2 hours and 4 hours, three samples of each peptide were taken and precipitated by the addition of 40 μl 15% aqueous trichloroacetic acid. The samples were stored at 4° C. for 20 minutes and centrifuged. The peptides and some remaining serum proteins were recovered in the supernatant after the trichloroacetic acid precipitation. The supernatants were immediately frozen on dry-ice and 220 μl of each were analyzed on RP-HPLC. A mouse serum and two different batches of the same SIGMA catalog number of human sera (human 1, approximately 1 year old, and human 2, approximately 1 month old) were also used.
The lyophilized samples were redissolved in 0.1 aqueous TFA and submitted for matrix assisted laser desorption/ionization (MALDI-MS).
The missing residues are indicated (e.g—C2 means that the C-terminal two residues are cleaved off). […] In Table 4, the relative amounts of the degradation products are estimated based on the MALDI-MS peak heights. 0=not detected; 1=very weak (below 5000), 2=weak (5–10000), 3=medium (10–15000), 4=strong (15000-uncleaved molecular ion at 25–30000), 5=very strong (above uncleaved molecular ion).

[11] = system: COS cells; assay: Direct killing of immortalized COS cells; format: cell-based
Excerpt: In another toxicity assay, COS cell survival was studied for pyrrhocoricin and cecropin B (Bachem Biosciences, King of Prussia, Pa.) as the positive control.

[12] = read-out: IC50 in μM against Agrobacterium tumefaciens, 30° C., 24 hours, for Peptide 22 original assay (a)
[13] = read-out: IC50 in μM against Salmonella typhimurium, 30° C., 24 hours, for Peptide 22 original assay (a)
[14] = read-out: IC50 in μM against Bacillus megaterium, 30° C., 24 hours, for Peptide 22 original assay (a)
[15] = read-out: IC50 in μM against Micrococcus luteus, 30° C., 24 hours, for Peptide 22 original assay (a)

Row | Compound | IC50 [5, 12] | IC50 [6] | IC50 ([7]; 24 h) | IC50 [8, 13] | IC50 [9, 14] | IC50 ([5]; 24 h) | IC50 [7, 15] | further results
1 | 1-aminocyclo-hexane carboxylic acid (Chex)-Pyrrhocoricin-β-acetyl-2,3-diamino propionic amide [Dap(Ac)] |  |  |  |  |  |  |  | cleaved bond [1]: Asn18-Arg19, 45-minute; also recorded: Ser5-Tyr6, 45-minute; not cleaved [1]: −C1 not detected (0) after 45-minute digestion; cleaved bond [2]: Asn18-Arg19, 45-minute; also recorded: Ser5-Tyr6, 45-minute; fragment found [2]: −C3, 45-minute; also recorded: −N5, C2, 45-minute; not cleaved [2]: −C1 not detected (0) after 45-minute digestion; cleaved bond [3]: Asn18-Arg19, 45-minute; also recorded: Ser5-Tyr6, 45-minute; fragment found [3]: −N5, C2, 45-minute; not cleaved [3]: −C1 not detected (0) after 45-minute digestion
2 | CC[C@H](C)[C@H](NC(=O)CN)C(=O)NCC(=O)N[C@@H](C)C(=O)N[C@H](C(=O)N[C@@H](CC(C)C)C(=O)N[C@@H](CCCCN)C(=O)N[C@H](C(=O)N[C@@H](CC(C)C)C(=O)N[C@H](C(=O)N[C@H](C(=O)NCC(=O)N[C@@H](CC(C)C)C(=O)N1CCC[C@H]1C(=O)N[C@@H](C)C(=O)N[C@@H](CC(C)C)C(=O)N[C@H](C(=O)N[C@@H](CO)C(=O)N[C@@H](Cc1c[nH]c2ccccc12)C(=O)N[C@H](C(=O)N[C@@H](CCCCN)C(=O)N[C@@H](CCCNC(=N)N)C(=O)N[C@@H](CCCCN)C(=O)N[C@@H](CCCNC(=N)N)C(=O)N[C@@H](CCC(N)=O)C(=O)N[C@@H](CCC(N)=O)C(N)=O)[C@@H](C)CC)[C@@H](C)CC)[C@@H](C)O)[C@@H](C)O)C(C)C)C(C)C [Melittin, reference compound] |  |  |  |  |  |  |  | lowest concentration that lysed sheep erythrocytes [4]: 5 µM; Absorbence at 405 nm [4]: 2.99 ± 0.06; lysis of erythrocytes (in words) ([4]; final concentration of 40 μM): lysed the erythrocytes
3 | CC[C@@H](C)[C@@H](NC(=O)[C@H]1CCCN1C(=O)[C@@H](CCCNC(=N)N)NC(=O)[C@H]1CCCN1C(=O)[C@H]1CCCN1C(=O)[C@H](NC(=O)[C@H]1CCCN1C(=O)[C@@H](CCCNC(=N)N)NC(=O)[C@H]1CCCN1C(=O)[C@@H](CC(C)C)NC(=O)[C@@H](Cc1ccc(O)cc1)NC(=O)[C@@H](CO)NC(=O)CNC(=O)[C@@H](CCCCN)NC(=O)[C@@H](CC(=O)O)NC(=O)[C@H](N)C(C)C)[C@H](C)O)C(=O)N[C@H](Cc1ccc(O)cc1)C(=O)N[C@H](CC(N)=O)C(=O)N[C@H](CCCNC(=N)N)C(=O)N[C@H](CC(N)=O)C(N)=O [Peptide 13] (H-[dV][dD][dK]G[dS][dY][dL][dP][dR][dP][dT][dP][dP][dR][dP][dI][dY][dN][dR][dN]-NH2; N-terminus and C-terminus assumed) | > 80 µM | > 80 µM | 40 µM | > 80 µM | > 80 µM |  |  | 
4 | CC[C@H](C)[C@@H]1NC(=O)[C@@H]2CCCN2C(=O)[C@H](CCCNC(=N)N)NC(=O)[C@@H]2CCCN2C(=O)[C@@H]2CCCN2C(=O)[C@H]([C@@H](C)O)NC(=O)[C@@H]2CCCN2C(=O)[C@H](CCCNC(=N)N)NC(=O)[C@@H]2CCCN2C(=O)[C@H](CC(C)C)NC(=O)[C@H](Cc2ccc(O)cc2)NC(=O)[C@H](CO)NC(=O)CNC(=O)[C@H](CCCCN)NC(=O)[C@H](CC(=O)O)NC(=O)[C@H](C(C)C)NC(=O)[C@H](CCCCN)NC(=O)[C@H](CC(C)C)NC(=O)[C@@H]2CCCN2C(=O)[C@H](CCCNC(=N)N)NC(=O)[C@@H]2CCCN2C(=O)[C@H]([C@@H](C)O)NC(=O)[C@@H]2CCCN2C(=O)[C@@H]2CCCN2C(=O)[C@H](CCCNC(=N)N)NC(=O)[C@H](CC(N)=O)NC(=O)[C@H](CCCNC(=N)N)NC(=O)[C@H](CC(N)=O)NC(=O)[C@H](Cc2ccc(O)cc2)NC1=O [Peptide 17] (cyclo(KVDKGSYLPRPTPPRPIYNRNRPPTPRPL)) |  |  | 0.6 µM |  |  | 2.5 µM |  | IC50 ([8]; murium, 24 h): 5 µM; IC50 ([9]; Bacillus, 24 h): 2.5 µM; endopeptidase cleavage site [10]: between Asn 18 and Arg19
5 | CC[C@H](C)[C@H](NC(=O)[C@@H]1CCCN1C(=O)[C@H](CCCNC(=N)N)NC(=O)[C@@H]1CCCN1C(=O)[C@@H]1CCCN1C(=O)[C@@H](NC(=O)[C@@H]1CCCN1C(=O)[C@H](CCCNC(=N)N)NC(=O)[C@@H]1CCCN1C(=O)[C@H](CC(C)C)NC(=O)[C@H](Cc1ccccc1)NC(=O)[C@H](C)NC(=O)CNC(=O)[C@H](CCCCN)NC(=O)[C@H](CC(=O)O)NC(=O)C1(N)CCCCC1)[C@@H](C)O)C(=O)N[C@@H](Cc1ccc(O)cc1)C(=O)N[C@@H](CC(N)=O)C(=O)N[C@@H](CCCNC(=N)N)C(=O)NC(CNC(C)=O)C(N)=O (stereo partly drawn) [Peptide 23] (H-[Ac6c]DKGAFLPRPTPPRPIYNR[ξDap](Ac)-NH2) |  | 20 µM | 5 µM |  |  |  |  | IC50 ([9]; Bacillus, 24 h): 40 µM
6 | CC[C@H](C)[C@H](NC(=O)[C@H](CCCNC(=N)N)NC(=O)[C@@H](NC(=O)[C@H](Cc1ccc(O)cc1)NC(=O)[C@@H](NC(=O)[C@H](C)N)C(C)C)[C@@H](C)O)C(=O)N[C@@H](CCSC)C(=O)N[C@@H](CCSC)C(=O)N[C@@H](CC(N)=O)C(=O)NCC(=O)NCC(=O)N[C@@H](CCCNC(=N)N)C(=O)N[C@@H](CC(C)C)C(=O)N[C@@H](CCCCN)C(=O)N[C@@H](CCCNC(=N)N)C(N)=O [Peptide 31D, reference compound] |  |  |  |  |  |  |  | Absorbence at 405 nm [4]: 0.160 ± 0.021
7 | Ac-KVDKGSYLPRPTPPRPIYNRD-NH2 (C-terminus assumed) [Peptide 20] |  |  |  | > 80 µM | > 80 µM | 40 µM | > 80 µM | 
8 | Ac-KVDKGSYLPRPTPPRPIYNRN-NH2 (C-terminus assumed) [Peptide 5] |  |  | 40 µM |  | > 80 µM | 5 µM |  | IC50 ([8]; murium, 24 h): 40 µM
9 | Ac-KVDKVDKGSYLPRPTPPRPIYNRN-NH2 (C-terminus assumed) [Peptide 3] |  |  | 80 µM |  | > 80 µM | 10 µM |  | IC50 ([8]; murium, 24 h): 5 µM
10 | Ac-RVDKGSYLPRPTPPRPIYNRN-NH2 (C-terminus assumed) [Peptide 4] |  |  | 5 µM |  | > 80 µM | 2.5 µM |  | IC50 ([8]; murium, 24 h): 2.5 µM
11 | Cecropin [reference compound] |  |  |  |  |  |  |  | Cell Count after Treatment ([11]; 5 μM peptide): 6 ± 6; Cell Count after Treatment ([11]; 10 μM peptide): 6.7 ± 0.3; Cell Count after Treatment ([11]; 50 μM peptide): 7.3 ± 3.7; effect on COS cell count (in words) ([11]; at as low as 5 μM concentration): reduced the cell count
12 | PTPPRPIYNRN [Peptide 15] | > 80 µM | > 80 µM |  | > 80 µM | > 80 µM |  | > 80 µM | 
13 | VDKGSYLPR [Peptide 14] | > 80 µM | > 80 µM |  | > 80 µM | > 80 µM |  | > 80 µM | 
14 | VDKGSYLPRPTPPRPIYN [Peptide 25] | > 80 µM | > 80 µM |  | > 80 µM | > 80 µM |  | > 80 µM | 
15 | VDKGSYLPRPTPPRPIYNRN |  |  |  |  |  |  |  | cleaved bond [1]: Arg19-Asn20, first_seen, 45 minute; also recorded: Asn18-Arg19, 45-minute; cleaved bond [2]: Arg19-Asn20, first_seen, 45 minute; also recorded: Asn18-Arg19, 45-minute; also recorded: Ser5-Tyr6, 45-minute; fragment found [2]: −C3, 45-minute; also recorded: −C6, 45-minute; cleaved bond [3]: Arg19-Asn20, first_seen, 45 minute; also recorded: Asn18-Arg19, 45-minute
16 | VDKGSYLPRPTPPRPIYNRN [Peptide 2, reference compound] | 0.3 µM | 0.3 µM |  | 2.5 µM | 40 µM |  | > 80 µM | 
